Results on two compounds are retold here after patent publication EP4635969A1, “NOVEL GLUCOCORTICOID, METHOD FOR PREPARING SAME, AND USE THEREOF” (Tianjin Pharmaceutical Biotechnology Co., Ltd., priority 2022, dated 2024).

Data set [1] deals with T1, mineralocorticoid receptor (MR) (Homo sapiens, UniProt P08235).
T1 sequence (P08235 726-984): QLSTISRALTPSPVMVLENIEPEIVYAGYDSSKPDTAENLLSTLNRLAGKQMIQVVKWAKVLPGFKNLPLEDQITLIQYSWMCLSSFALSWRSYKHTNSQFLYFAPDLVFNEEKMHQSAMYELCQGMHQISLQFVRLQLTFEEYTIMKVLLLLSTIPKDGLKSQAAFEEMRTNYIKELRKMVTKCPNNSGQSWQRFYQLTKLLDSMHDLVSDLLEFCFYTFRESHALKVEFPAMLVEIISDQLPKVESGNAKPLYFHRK
Nature of the data set: Assay for agonist activity on mineralocorticoid receptor (luciferase reporter, HEK293 cells transfected with pBIND-MR plasmid). In kind it is cell-based. Summed up:
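HEK293 cells transiently transfected with pBIND-MR or pBIND-PR, seeded in phenol red-free DMEM with 5% charcoal-stripped serum. Compounds tested as 12-point 4-fold dilutions from 50 µM in duplicate, 0.1% DMSO blank. Luciferase luminescence read, EC50 by nonlinear fit.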

A short description of data set [2]: Determination of stability in plasma in vitro, human plasma (LC-MS/MS). The note with it: same experimental conditions (human and mouse plasma). In kind it is in vitro ADME. Summed up: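 Compound at 1 µM final in human or mouse plasma (N = 2) at 37 °C; aliquots taken at 0 and preset time points into ice-cold precipitant with internal standard. Remaining compound measured semi-quantitatively by LC-MS/MS as analyte/internal-standard peak-area ratio.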

Data set [3] relates to asthma model mice. Nature of the data set: Anti-asthma pharmacodynamic experiment: airway hyperresponsiveness (Penh) after methacholine challenge. The settings on record: compared with the model group. Type of data set: in vivo, female BALB/c mice.
Data set [4] relates to inflammatory cytokines IL-6 and IL-12. As to the kind of experiment: Anti-asthma pharmacodynamic experiment: inflammatory cytokines in bronchoalveolar lavage fluid (ELISA). In kind it is in vivo, female BALB/c mice. The settings on record: compared with the model group. (In general: An ELISA detects its analyte on a solid surface through an enzyme-linked reagent.)
In data set [5] the test system is inflammatory cytokines (TNF-α). Nature of the data set: Anti-uveitis pharmacodynamic experiment (LPS model): inflammatory cytokines in aqueous humor (ELISA). The settings on record: values not given. Type of data set: in vivo, male SD rats. The gist of the method:
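Male SD rats given uveitis by single subplantar injection of LPS (Salmonella) 1 mg/kg, then bilateral ocular dosing of 40 µL 5 mg/5 mL ophthalmic suspension three times daily for 2 days.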

Data set [6] deals with dry eye syndrome model New Zealand rabbits. As to the kind of experiment: Dry eye syndrome experiment (benzalkonium chloride model): corneal fluorescein sodium staining. The settings on record: compared with the model group. In kind it is in vivo, male New Zealand White rabbits.
Description: Pharmacological Example 6: Therapeutic Pharmacodynamic Experiment on Dry Eye Syndrome in New Zealand Rabbits
Positive control drug: Fluorometholone Eye Drops (specification: 5 mL/5 mg; Santen Pharmaceutical (CHINA) Co., Ltd.; Lot No.: 1FM6625) was used as the positive control drug and stored at room temperature protected from light until use.
Thirty male New Zealand White rabbits (conventional grade) were prepared. Six rabbits were randomly selected as the blank control group, and the remaining animals were administered 0.1% benzalkonium chloride to the left eye twice daily (morning and evening) , 10 µL/animal each time. […] During the administration, all animals except the blank control group were administered 10 µL of 0.1% benzalkonium chloride to the left eye once daily to maintain dry eye symptoms..
• Test time: D3, D7, D15; • Test animals: All animals were tested before grouping; all enrolled surviving animals were tested after administration; • Test method: 2 µL of 1% Fluorescein sodium was dropped into the conjunctival sac. After 5 s, the excess fluorescein was rinsed with 0.9% normal saline. The conjunctival staining was observed under a slit lamp with cobalt blue diffused light.
The normality and homogeneity of variance were tested by Levene's test. If there was no statistical significance (P > 0.05), one-way analysis of variance (ANOVA) was used for statistical analysis. If ANOVA was statistically significant (P ≤ 0.05), LSD test (parametric method) was used for comparative analysis. If the variance was heterogeneous (P ≤ 0.05), Kruskal-Wallis test was used. If the Kruskal-Wallis test was statistically significant (P ≤ 0.05), Dunnett's test (nonparametric method) was used for comparative analysis.
The subject of data set [7] is psoriasis model mice. Nature of the data set: Psoriasis experiment (imiquimod model): skin lesion (PASI) score. Type of data set: in vivo. The note with it: compared with the model group.
Description: Positive control drug: Fluticasone Propionate Cream (specification: 0.05% × 15 g, Zhejiang Xianju Pharmaceutical Co. Ltd., Lot No. 211106), stored at room temperature protected from light until use.
Adult mice were selected, and the skin of 2 cm × 3 cm on the back of mice was locally depilated. The mice in the model group and drug administration group were applied with 62.5 mg of 5% imiquimod cream on their back for modeling, while the mice in the blank control group were applied with medical petroleum jelly on their back daily. The above procedures were performed once a day for 7 consecutive days.
The mice in the drug administration group were applied with the corresponding drugs on their backs daily at a dose of 0.2 g per mouse, while the blank control group and the model group were only applied with 0.2 g of the test sample drug matrix. One hour after drug administration, the drugs were wiped off with sterile cotton swabs, followed by the application of imiquimod. The above procedures were performed once a day for 7 consecutive days.
Referring to the clinical Psoriasis Area and Severity Index (PASI) scoring criteria, erythema, scaling, and thickness at the skin lesion sites were evaluated on a 0-4 scale on day 8 of modeling, and the total score was obtained by summing the three items.
• (1) Erythema: a score of 0 points indicates no erythema, a score of 1 point indicates erythema appearing light red, a score of 2 points indicates erythema appearing red, a score of 3 points indicates erythema appearing dark red, and a score of 4 points indicates erythema appearing extremely deep red; • (2) Scaling: a score of 0 points indicates no scaling on the surface, a score of 1 point indicates partial skin lesions covered with scaling, a score of 2 points indicates most skin lesions covered with scaling, a score of 3 points indicates almost all skin lesions covered with scaling in layers, and a score of 4 points indicates all skin lesions covered with scaling; • (3) Thickness: a score of 0 points indicates skin lesions flush with normal skin, a score of 1 point indicates skin lesions slightly elevated above normal skin surface, a score of 2 points indicates moderate elevation of skin lesions, a score of 3 points indicates thickened skin lesions with obvious elevation, and a score of 4 points indicates highly thickened skin lesions with prominent elevation.
Statistical analysis was performed using SPSS software, and the results were expressed as mean ± standard deviation. One-way ANOVA was used for intergroup comparisons. For data with homogeneous variance, the LSD test was used; for data with heterogeneous variance, the Dunnett-t test was used. A value of P < 0.05 was considered statistically significant.
Data set [8] concerns IL-17. Nature of the data set: Psoriasis experiment (imiquimod model): inflammatory cytokine in serum (ELISA). The note with it: compared with the model group. In kind it is in vivo, mice.

Usually EC50 stands for the concentration giving half of the maximal effect.

Consider `C[C@]12C=CC(=O)C=C1CC[C@H]1[C@@H]3C[C@H]4OC(c5ccc(CNC6COC(=O)C6)cc5)O[C@@]4(C(=O)CO)[C@@]3(C)C[C@H](O)[C@@]12F` (stereo partly drawn) [Compound 21, (6aS,6bR,7S,8aS,8bS,11aR,12aS,12bS)-6b-Fluoro-7-hydroxy-8b-(2-hydroxyacetyl)-6a,8a-dimethyl-10-(4-(((5-oxotetrahydrofuran-3-yl)amino)methyl)phenyl)-1,2,6a,6b,7,8,8a,8b,11a,12,12a,12b-dodecahydro-4H-naphtho[2',1':4,5]indeno[1,2-d][1,3]dioxol-4-one], for which the target selectivity entry in data set [1] (MR/GR and PR/GR, same experimental conditions) is “target selectivity comparable to that of compound 23”. In addition, the plasma instability result in data set [2] was “exhibited the characteristic of plasma instability”. The “Effects on airway hyperresponsiveness (Penh values) in mice” value in data set [3] is “significantly decreased the Penh values in mice”. In addition, the “Effects on inflammatory cytokines in bronchoalveolar lavage fluid of mice” value in data set [4] was “pharmacological effects similar to those of compound 23”. In addition, the “inflammatory cytokines in aqueous humor” value in data set [5] is recorded as “suppressed inflammatory cytokines in aqueous humor”. For the same compound, the “inflammatory response on the ocular surface / ocular symptoms” value in data set [6] was “significantly alleviated the ocular symptoms in dry eye syndrome model New Zealand rabbits”. Besides, the PASI scores result in data set [7] is listed as “significantly decreased PASI scores on day 7”. Moreover, the “level of IL-17 / inflammatory cytokines in psoriasis model mice” value in data set [8] is reported as “significantly inhibited inflammatory cytokines in the skin of psoriasis model mice”.

Take `C[C@]12C=CC(=O)C=C1CC[C@H]1[C@@H]3C[C@H]4OC(c5ccc(CSC6CCOC6=O)nc5)O[C@@]4(C(=O)CO)[C@@]3(C)C[C@H](O)[C@@]12F` (stereo partly drawn) [Compound 47, (6aS,6bR,7S,8aS,8bS,11aR,12aS,12bS)-6b-Fluoro-7-hydroxy-8b-(2-hydroxyacetyl)-6a,8a-dimethyl-10-(6-(((2-oxotetrahydrofuran-3-yl)thio)methyl)pyridin-3-yl)-1,2,6a,6b,7,8,8a,8b,11a,12,12a,12 b-dodecahydro-4H-naphtho[2',1':4,5]indeno[1,2-d][1,3]dioxol-4-one]: the concentration giving a half-maximal response (EC50) in data set [1] was greater than 50 µM. Moreover, the “Target selectivity MR/GR” value in data set [1] (ratio of EC50 values) is recorded as > 1.5×10^5. Moreover, in data set [2], the plasma instability entry is listed as “exhibited the characteristic of plasma instability”. Moreover, in data set [3], the “Effects on airway hyperresponsiveness (Penh values) in mice” value is on record as “significantly decreased the Penh values in mice”. In data set [4], the “Effects on inflammatory cytokines in bronchoalveolar lavage fluid of mice” value is “pharmacological effects similar to those of compound 23”. Also, the “inflammatory cytokines in aqueous humor” value in data set [5] is recorded as “suppressed inflammatory cytokines in aqueous humor”. Besides, the “inflammatory response on the ocular surface / ocular symptoms” value in data set [6] is recorded as “significantly alleviated the ocular symptoms in dry eye syndrome model New Zealand rabbits”. Also, the PASI scores result in data set [7] was “significantly decreased PASI scores on day 7”. Besides, the “level of IL-17 / inflammatory cytokines in psoriasis model mice” value in data set [8] was “significantly inhibited inflammatory cytokines in the skin of psoriasis model mice”.
